Assay results as given in paper PMC3087488 (Journal of Oncology, 2011).
Marks after values point to notes of the source that are not given here.

Test: adverse events in patients (CTCAE version 3.0)
Format: in vivo, human
Conditions: for Any motesanib-related AE, Grade 5 / Motesanib-related AE: Anorexia / Motesanib-related AE: Constipation / Motesanib-related AE: Deep vein thrombosis / Motesanib-related AE: Dehydration / Motesanib-related AE: Dermatitis acneiform / Motesanib-related AE: Diarrhea / Motesanib-related AE: Erythema / Motesanib-related AE: Fatigue / Motesanib-related AE: Hypertension / Motesanib-related AE: Nausea / Motesanib-related AE: Pulmonary embolism / Motesanib-related AE: Rash / Motesanib-related AE: Vomiting / Motesanib-related Arterial thromboembolic events (all grades) / Motesanib-related Arterial thrombosis, Grade 3 / Motesanib-related Arterial thrombosis, Grade 4 / Motesanib-related Cerebrovascular accident, Grade 2 / Motesanib-related Deep vein thrombosis, Grade 2 / Motesanib-related Deep vein thrombosis, Grade 3 / Motesanib-related Gallbladder disorder, Grade 1 / Motesanib-related Hemorrhagic events, Grade 1 / Motesanib-related Jugular vein thrombosis, Grade 2 / Motesanib-related Neutropenia, Grade 3 / Motesanib-related Pulmonary embolism, Grade 4 / Motesanib-related Pulmonary embolism, Grade 5 / Motesanib-related Venous thromboembolic events (all grades) / Patients with any motesanib-related AE / Any motesanib-related AE, Grade 3 / Any motesanib-related AE, Grade 4: gemcitabine/cisplatin
Method: Adverse events were recorded throughout the study and graded (including DLTs) according to the Common Terminology Criteria for Adverse Events, version 3.0. Samples for assessment of hematology, blood chemistry, urinalysis, and thyroid function were collected on day 1 of each cycle.

[1] = motesanib 75 mg QD (n = 6) + panitumumab
[2] = motesanib 100 mg QD (n = 6) + panitumumab
[3] = motesanib 125 mg QD (n = 11) + panitumumab

CC1(C)CNc2cc(NC(=O)c3cccnc3NCc3ccncc3)ccc21 [motesanib]
2 patients: grade 3/4 arterial thrombosis (treatment regimen as a whole)
2 (18) n (%): Motesanib-related AE: Constipation [3] | Motesanib-related AE: Deep vein thrombosis [3] | Motesanib-related AE: Dermatitis acneiform [3] | Motesanib-related AE: Rash [3] | Motesanib-related AE: Vomiting [3]
5 (45) n (%): Motesanib-related AE: Hypertension [3]
1 (9)^a n (%): Any motesanib-related AE, Grade 5 (motesanib 125 mg QD (n = 11) + panitumumab, sudden death)
0 (0) n (%): Any motesanib-related AE, Grade 5 [1] | Motesanib-related AE: Anorexia [1] | Motesanib-related AE: Deep vein thrombosis [1] | Motesanib-related Arterial thromboembolic events (all grades) [1] | Motesanib-related Arterial thrombosis, Grade 3 [1] | Motesanib-related Arterial thrombosis, Grade 4 [1] | Motesanib-related Cerebrovascular accident, Grade 2 [1] | Motesanib-related Deep vein thrombosis, Grade 2 [1] | Motesanib-related Deep vein thrombosis, Grade 3 [1] | Motesanib-related Hemorrhagic events, Grade 1 [1] | Motesanib-related Neutropenia, Grade 3 [1] | Motesanib-related Pulmonary embolism, Grade 5 [1] | Any motesanib-related AE, Grade 5 [2] | Motesanib-related AE: Constipation [2] | Motesanib-related AE: Dehydration [2] | Motesanib-related AE: Dermatitis acneiform [2] | Motesanib-related AE: Diarrhea [2] | Motesanib-related AE: Rash [2] | Motesanib-related Arterial thromboembolic events (all grades) [2] | Motesanib-related Arterial thrombosis, Grade 3 [2] | Motesanib-related Arterial thrombosis, Grade 4 [2] | Motesanib-related Cerebrovascular accident, Grade 2 [2] | Motesanib-related Deep vein thrombosis, Grade 2 [2] | Motesanib-related Gallbladder disorder, Grade 1 [2] | Motesanib-related Jugular vein thrombosis, Grade 2 [2] | Motesanib-related Neutropenia, Grade 3 [2] | Motesanib-related Pulmonary embolism, Grade 5 [2] | Motesanib-related AE: Erythema [3] | Motesanib-related Arterial thrombosis, Grade 4 [3] | Motesanib-related Cerebrovascular accident, Grade 2 [3] | Motesanib-related Deep vein thrombosis, Grade 2 [3] | Motesanib-related Gallbladder disorder, Grade 1 [3] | Motesanib-related Jugular vein thrombosis, Grade 2 [3] | Motesanib-related Neutropenia, Grade 3 [3] | Motesanib-related Pulmonary embolism, Grade 5 [3]
8 patients: grade 4 pulmonary embolism (treatment regimen as a whole)
3 (27) n (%): Any motesanib-related AE, Grade 4 [3] | Motesanib-related AE: Dehydration [3] | Motesanib-related AE: Pulmonary embolism [3] | Motesanib-related Hemorrhagic events, Grade 1 [3] | Motesanib-related Venous thromboembolic events (all grades) [3]
4 (36) n (%): Motesanib-related AE: Anorexia [3] | Motesanib-related AE: Nausea [3]
1 (17) n (%): Motesanib-related AE: Dehydration [1] | Motesanib-related AE: Diarrhea [1] | Motesanib-related AE: Rash [1] | Motesanib-related Gallbladder disorder, Grade 1 [1] | Motesanib-related Jugular vein thrombosis, Grade 2 [1] | Any motesanib-related AE, Grade 3 [2] | Motesanib-related AE: Deep vein thrombosis [2] | Motesanib-related AE: Erythema [2] | Motesanib-related AE: Vomiting [2] | Motesanib-related Hemorrhagic events, Grade 1 [2]
7 (64) n (%): Motesanib-related AE: Diarrhea [3]
29 patients: patients with motesanib-related adverse events (of the 33 patients who received motesanib (88%))
Two: deaths considered related to motesanib and panitumumab (pulmonary embolism, 50 mg QD, and sudden death, 125 mg QD, within 30 days of treatment)
1 (17)^b n (%): Motesanib-related Deep vein thrombosis, Grade 3 [2]
6 (100) n (%): Patients with any motesanib-related AE [1]
2 (33)^b n (%): Motesanib-related Pulmonary embolism, Grade 4 [2]
2 (18)^c n (%): Motesanib-related Deep vein thrombosis, Grade 3 [3]
1 (9) n (%): Motesanib-related Arterial thromboembolic events (all grades) [3] | Motesanib-related Arterial thrombosis, Grade 3 [3]
not tolerable: tolerability of the combination treatment (motesanib, panitumumab, and gemcitabine/cisplatin at the doses and schedule administered)
4 (67) n (%): Motesanib-related AE: Hypertension [1] | Patients with any motesanib-related AE [2]
11 (100) n (%): Patients with any motesanib-related AE [3]
3 (50) n (%): Motesanib-related AE: Vomiting [1] | Motesanib-related Venous thromboembolic events (all grades) [1]
5 (83) n (%): Motesanib-related AE: Nausea [1]
3 patients: grade 3 deep vein thrombosis (treatment regimen as a whole)
3 (27)^c n (%): Motesanib-related Pulmonary embolism, Grade 4 [3]
6 (55) n (%): Any motesanib-related AE, Grade 3 [3] | Motesanib-related AE: Fatigue [3]
2 (33) n (%): Motesanib-related AE: Constipation [1] | Motesanib-related AE: Dermatitis acneiform [1] | Motesanib-related AE: Erythema [1] | Motesanib-related AE: Fatigue [1] | Motesanib-related AE: Pulmonary embolism [1] | Motesanib-related Pulmonary embolism, Grade 4 [1] | Any motesanib-related AE, Grade 4 [2] | Motesanib-related AE: Anorexia [2] | Motesanib-related AE: Fatigue [2] | Motesanib-related AE: Hypertension [2] | Motesanib-related AE: Nausea [2] | Motesanib-related AE: Pulmonary embolism [2] | Motesanib-related Venous thromboembolic events (all grades) [2]
